Source: patent publication US6444617B1, “Fused-heterocycle dicarboxylic acid diamide derivatives or salts thereof, herbicide and usage thereof” (Nihon Nohyaku Co., Ltd., priority 1998, dated 2002)

Columns and labels:
Assay type in all cases: in vivo
[1] = test system: bulrush (Scirpus juncoides Roxb.); test: Test Example 1: herbicidal effect on paddy field weeds before emergence; conditions: Dosage 5 kg/ha
Summary of the method: (§1)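 Seeds of both weeds, still ungerminated, in soil pots held under paddy conditions received a set dose of test solution as soil treatment. After twenty-one days, control relative to untreated pots was calculated and rated on a scoring scale.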

[2] = test system: barnyard grass (Echinochloa crus-galli Beauv.); test: as above; conditions: Dosage 5 kg/ha
Summary of the method: as §1

[3] = test system: wheat (Wh); test: Test Example 3: phytotoxicity to upland crop plants, treatment before emergence; conditions: dosage 5 kg/ha
Summary of the method: (§2)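 Phytotoxicity scores for soybean and wheat were assigned by a set criterion 14 days after a pre-emergence spray of a liquid preparation containing the test compound at a prescribed concentration.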

[4] = test system: soybean plant (So); test: as above; conditions: dosage 5 kg/ha
Summary of the method: as §2

[5] = test system: barnyard grass (Echinochloa crus-galli Beauv.), Ec; test: Test Example 4: herbicidal effect on upland weeds after emergence; conditions: dosage 5 kg/ha; sprayed after emergence; judged 14 days after treatment
Summary of the method: (§3)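 Seeds sown in soil and covered. Plants raised to specified leaf stages. Agent with test compound at a prescribed concentration sprayed. Herbicidal effect and crop damage scored after 14 days as weed-killing rate.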

[6] = test system: cleavers (Galium aparine L.), Ga; test: as above; conditions: dosage 5 kg/ha; sprayed after emergence; judged 14 days after treatment
Summary of the method: as §3

[7] = test system: cocklebur (Xanthium strumarium L.), Xs; test: as above; conditions: dosage 5 kg/ha; sprayed after emergence; judged 14 days after treatment
Summary of the method: as §3

[8] = test system: bird's eye speedwell (Veronica persica Poir.), Vp; test: as above; conditions: dosage 5 kg/ha; sprayed after emergence; judged 14 days after treatment
Summary of the method: as §3

[9] = test system: velvetleaf (Abutilon theophtasti L.), At; test: as above; conditions: dosage 5 kg/ha; sprayed after emergence; judged 14 days after treatment
Summary of the method: as §3

[10] = test system: forxtail grass (Alopecurus aequalis var. amurensis Ohwi), Am; test: as above; conditions: dosage 5 kg/ha; sprayed after emergence; judged 14 days after treatment
Summary of the method: as §3

[11] = test system: wheat; test: Test Example 4: phytotoxicity to upland crop plants, treatment after emergence; conditions: dosage 5 kg/ha, sprayed after emergence, judged 14 days after treatment
Summary of the method: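 Post-emergence foliar spray, compound at prescribed concentration, applied at defined leaf stages; weeds plus soybean/wheat grown in soil vats. Read-out: weed-killing rate and crop injury, 14 d post-treatment.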

[12] = test system: soybean plant; test: as above; conditions: dosage 5 kg/ha, sprayed after emergence, judged 14 days after treatment
Summary of the method: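 Weeds and soybean grown in soil-filled vats to set leaf stages, then sprayed post-emergence with the compound at a prescribed concentration. Weed-killing rate and crop phytotoxicity judged 14 days after treatment.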

[13] = test system: bulrush (Scirpus juncoides Roxb.); test: Test Example 2: herbicidal effect on paddy field weeds after emergence; conditions: Dosage 5 kg/ha; one-leaved stage; 21 days after treatment
Summary of the method: (§4)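 Weeds in flooded paddy-soil pots were grown to the one-leaved stage, then the soil was treated with the compound solution at a set dosage.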

[14] = test system: monochoria (Monochoria vaginalis Presl); test: as above; conditions: Dosage 5 kg/ha; one-leaved stage; 21 days after treatment
Summary of the method: as §4

[15] = test system: barnyard grass (Echinochloa crus-galli Beauv.); test: as above; conditions: Dosage 5 kg/ha; one-leaved stage; 21 days after treatment
Summary of the method: as §4

[16] = test system: barnyard grass (Echinochloa crus-galli Beauv.), Ec; test: Test Example 3: herbicidal effect on upland weeds before emergence; conditions: dosage 5 kg/ha
Summary of the method: (§5)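 Read-out is the weed-killing rate, scored fourteen days after a single spray application made before the weeds emerged. The spray was a liquid agent carrying the active compound at a prescribed dose.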

[17] = test system: cleavers (Galium aparine L.), Ga; test: as above; conditions: dosage 5 kg/ha
Summary of the method: as §5

[18] = test system: cocklebur (Xanthium strumarium L.), Xs; test: as above; conditions: dosage 5 kg/ha
Summary of the method: as §5

[19] = test system: bird's eye speedwell (Veronica persica Poir.), Vp; test: as above; conditions: dosage 5 kg/ha
Summary of the method: as §5

[20] = test system: velvetleaf (Abutilon theophtasti L.), At; test: as above; conditions: dosage 5 kg/ha
Summary of the method: as §5

[21] = test system: forxtail grass (Alopecurus aequalis var. amurensis Ohwi), Am; test: as above; conditions: foxtail grass, dosage 5 kg/ha
Summary of the method: as §5

SMILES | Pre-emergence treatment Bulrush (herbicidal effect) [1] | Pre-emergence treatment Barnyard grass (herbicidal effect) [2] | Phytotoxicity Wh [3] | Phytotoxicity So [4] | Herbicidal effect Ec [5] | Herbicidal effect Ga [6] | Herbicidal effect Xs [7] | Herbicidal effect Vp [8] | Herbicidal effect At [9] | Herbicidal effect Am [10] | Phytotoxicity Wh [11] | Phytotoxicity So [12] | Post-emergence treatment Bulrush (herbicidal effect) [13] | Post-emergence treatment Monochoria (herbicidal effect) [14] | Post-emergence treatment Barnyard grass (herbicidal effect) [15] | Herbicidal effect Ec [16] | Herbicidal effect Ga [17] | Herbicidal effect Xs [18] | Herbicidal effect Vp [19] | Herbicidal effect At [20] | also measured
CCCNC(=O)c1nc2occc2cc1C(=O)Nc1c(CC)ccc(Cl)c1CC [compound 775] | 5 (Weed-killing rate is 100%.) | 5 (Weed-killing rate is 100%.) | 5 (Crop-killing rate is 100%.) | 5 (Crop-killing rate is 100%.) | 5 (Weed-killing rate is 100%.) | 5 (Weed-killing rate is 100%.) | 5 (Weed-killing rate is 100%.) | 5 (Weed-killing rate is 100%.) | 5 (Weed-killing rate is 100%.) | 5 (Weed-killing rate is 100%.) | 5 (Crop-killing rate is 100%.) | 5 (Crop-killing rate is 100%.) | 5 (Weed-killing rate is 100%.) | 5 (Weed-killing rate is 100%.) | 5 (Weed-killing rate is 100%.) | 5 (Weed-killing rate is 100%.) | 5 (Weed-killing rate is 100%.) | 5 (Weed-killing rate is 100%.) | 5 (Weed-killing rate is 100%.) | 5 (Weed-killing rate is 100%.) | Herbicidal effect Am [21]: 5 (Weed-killing rate is 100%.)
Cc1c(Cl)cccc1NC(=O)c1cc2ccoc2nc1C(=O)NC1CCCC1 [compound 796] | 5 (Weed-killing rate is 100%.) | 5 (Weed-killing rate is 100%.) | 5 (Crop-killing rate is 100%.) | 4 (Crop-killing rate is 90-99%.) | 5 (Weed-killing rate is 100%.) | 4 (Weed-killing rate is 90-99%.) | 4 (Weed-killing rate is 90-99%.) | 5 (Weed-killing rate is 100%.) | 5 (Weed-killing rate is 100%.) | 5 (Weed-killing rate is 100%.) | 4 (Crop-killing rate is 90-99%.) | 4 (Crop-killing rate is 90-99%.) | 5 (Weed-killing rate is 100%.) | 5 (Weed-killing rate is 100%.) | 5 (Weed-killing rate is 100%.) | 5 (Weed-killing rate is 100%.) | 5 (Weed-killing rate is 100%.) | 4 (Weed-killing rate is 90-99%.) | 5 (Weed-killing rate is 100%.) | 5 (Weed-killing rate is 100%.) | Herbicidal effect Am [21]: 5 (Weed-killing rate is 100%.)
CCNC(=O)c1nc2sccc2cc1C(=O)Nc1c(CC)ccc(Cl)c1CC [compound 798] | 5 (Weed-killing rate is 100%.) | 5 (Weed-killing rate is 100%.) | 5 (Crop-killing rate is 100%.) | 4 (Crop-killing rate is 90-99%.) | 5 (Weed-killing rate is 100%.) | 5 (Weed-killing rate is 100%.) | 5 (Weed-killing rate is 100%.) | 5 (Weed-killing rate is 100%.) | 5 (Weed-killing rate is 100%.) | 5 (Weed-killing rate is 100%.) | 5 (Crop-killing rate is 100%.) | 4 (Crop-killing rate is 90-99%.) | 5 (Weed-killing rate is 100%.) | 5 (Weed-killing rate is 100%.) | 5 (Weed-killing rate is 100%.) | 5 (Weed-killing rate is 100%.) | 5 (Weed-killing rate is 100%.) | 5 (Weed-killing rate is 100%.) | 5 (Weed-killing rate is 100%.) | 5 (Weed-killing rate is 100%.) | Herbicidal effect Am [21]: 5 (Weed-killing rate is 100%.)
CCCNC(=O)c1nc2sccc2cc1C(=O)Nc1c(CC)ccc(Cl)c1CC [compound 799] | 5 (Weed-killing rate is 100%.) | 5 (Weed-killing rate is 100%.) | 5 (Crop-killing rate is 100%.) | 5 (Crop-killing rate is 100%.) | 5 (Weed-killing rate is 100%.) | 5 (Weed-killing rate is 100%.) | 5 (Weed-killing rate is 100%.) | 5 (Weed-killing rate is 100%.) | 5 (Weed-killing rate is 100%.) | 5 (Weed-killing rate is 100%.) | 5 (Crop-killing rate is 100%.) | 5 (Crop-killing rate is 100%.) | 5 (Weed-killing rate is 100%.) | 5 (Weed-killing rate is 100%.) | 5 (Weed-killing rate is 100%.) | 5 (Weed-killing rate is 100%.) | 5 (Weed-killing rate is 100%.) | 5 (Weed-killing rate is 100%.) | 5 (Weed-killing rate is 100%.) | 5 (Weed-killing rate is 100%.) | Herbicidal effect Am [21]: 5 (Weed-killing rate is 100%.)
Cc1c(Cl)cccc1NC(=O)c1cc2ccsc2nc1C(=O)NC1CCCC1 [compound 811] | 5 (Weed-killing rate is 100%.) | 5 (Weed-killing rate is 100%.) | 5 (Crop-killing rate is 100%.) | 4 (Crop-killing rate is 90-99%.) | 5 (Weed-killing rate is 100%.) | 4 (Weed-killing rate is 90-99%.) | 4 (Weed-killing rate is 90-99%.) | 5 (Weed-killing rate is 100%.) | 5 (Weed-killing rate is 100%.) | 5 (Weed-killing rate is 100%.) | 5 (Crop-killing rate is 100%.) | 4 (Crop-killing rate is 90-99%.) | 5 (Weed-killing rate is 100%.) | 5 (Weed-killing rate is 100%.) | 5 (Weed-killing rate is 100%.) | 5 (Weed-killing rate is 100%.) | 5 (Weed-killing rate is 100%.) | 5 (Weed-killing rate is 100%.) | 5 (Weed-killing rate is 100%.) | 5 (Weed-killing rate is 100%.) | Herbicidal effect Am [21]: 5 (Weed-killing rate is 100%.)
